Test results as given in patent publication US10145848B2, “Small-molecule hydrophobic tagging of fusion proteins and induced degradation of same” (YALE UNIVERSITY, priority 2010, dated 2018).
Residues, ends and D or L forms follow the SMILES beside them. *: point of attachment. Cbz = O=C(OCc1ccccc1)*

Legend:
Assay type in all cases: cell-based
[1] = molecular target: T1, luciferase-HaloTag fusion protein (Rhodococcus rhodochrous, UniProt P0A3G2, C176G/H272F/K175M/Y273L); assay: Luciferase assay in HEK 293T cells expressing luciferase-HaloTag; settings: 1 μM, 24 hours
T1 construct: The HaloTag protein was obtained from pHT2 vector (Promega); luciferase (from pGL3-Basic); expressed in transfected cells
Procedure: (a) Chemical structures of the representative HaloTag Ligands: HyT5, HyT12, HyT13, HyT16, HyT21 and HyT22. (b) HEK 293T cells expressing HA-HaloTag-luciferase were treated with indicated compounds at 1 μM for 24 hours, at which point luciferase assays were performed.
Ten thousand stable HEK 293T cells infected with HA-luciferase-HaloTag were plated into each well in a 96-well plate. The next day, indicated HyT compounds were added in triplicate and the cells were cultured for another 24 hours. The cells were washed once with cold PBS and lysed in Passive Lysis Buffer (Promega). The luciferase activity was performed by Steady-Glo Luciferase Assay System (Promega) on a Wallac Victor 2 Plate Reader (Perkin Elmer) and the luciferase activity was normalized by protein concentration, as determined by the Bradford assay.
The inventors designed 21 structurally distinct scaffolds as the basis for our hydrophobic Tags (HyTs), and synthesized and tested 30 compounds across these scaffolds composed of hydrophobic moieties linked to the HaloTag haloalkane reactive linker (Table 1, FIG. 5). […]

[2] = molecular target: T2, HA-EGFP-HaloTag fusion protein (Rhodococcus rhodochrous, UniProt P0A3G2, C176G/H272F/K175M/Y273L); assay: Immunoblotting of HA-EGFP-HaloTag in Flp-In 293 cells; settings: 10 μM pretreatment 1 hour, then 1 μM HyT13, 6 hours
T2 construct: The HaloTag protein was obtained from pHT2 vector (Promega); expressed in transfected cells
Procedure: Flp-In 293 cells expressing HA-EGFP-HaloTag were treated with indicated concentrations of HyT13 for 24 hours. The lysates were probed with anti-HA and anti-β-actin antibodies, with β-actin serving as a loading control. Shown is quantification of three separate experiments, with error bars representing SEM.
Flp-In 293 cells expressing HA-EGFP-HaloTag cells were treated for the indicated times with 1 μM HyT13 and the lysates were probed with anti-HA and anti-β-actin antibodies. The rightmost sample was treated with HyT13 for 24 hours, after which HyT13-free media was provided for 24 hours. Shown is quantification of three separate experiments, with error bars representing SEM.
The indicated cells were washed twice with cold PBS and the cells were lysed in lysis buffer (1×PBS, 1% NP-40, 1 mM EDTA, 40 mM HEPES) with protease inhibitors. The lysates were cleared by centrifugation at 10,000 g for 5 min. The total protein concentration was determined by Bradford assay and 50 μg of protein was loaded onto an 8% Bis-Tris gel. To solubilize polyubiquitinated and aggregated proteins upon proteasome inhibition^42 samples generated for FIG. 12d were lysed with a SDS lysis buffer (1×PBS, 1% NP-40, 1% SDS, 1% sodium deoxycholate, 1 mM EDTA, 40 mM HEPES) with protease inhibitors. The blots were processed by standard procedures with indicated antibodies, and the band intensities were quantified by ImageJ.
As the luciferase assay relied on the loss-of-activity of the luciferase-HaloTag fusion protein, we wanted to determine whether the decrease in luciferase activity resulted from the degradation of the entire fusion protein or perhaps simply inhibition of luciferase activity. We generated a stable Flp-In 293 cell line with a single integration site containing HA-EGFP-HaloTag fusion protein, and employed this cell line to perform kinetic studies with HyT13. […] Consistent with our previous observations, treatment of these cells with 1 μM of HyT13 for 24 hours reduced the mean fluorescence intensity of cells almost 7-fold. Together, these findings provide the first experimental evidence that hydrophobic tagging represents a viable strategy for the control of protein levels.

HEK293 or HeLa cells = assay: Cell viability with Resazurin (alamarBlue); settings: indicated concentration, 24 hours
Procedure: HEK293 or HeLa cells were treated with indicated concentrations of HyT13 for 24 hours. The oxidation-reduction indicator Resazurin (alamarBlue, Invitrogen) was employed to determine cell viability.

Structure (SMILES) | luciferase activity [1] | effect of proteasome inhibitor on HyT13 mediated degradation [2] | cellular toxicity (positive control) (HEK293 or HeLa cells)
NCCOCCOCCOCCn1cc(CCC(=O)NCCOCCOCCOCC(=O)NCCOCCOCCCCCCCl)nn1 [HyT5, 3-(1-(2-(2-(2-(2-aminoethoxy)ethoxy)ethoxy)ethyl)-1H-1,2,3-triazol-4-yl)-N-(24-chloro-11-oxo-3,6,9,15,18-pentaoxa-12-azatetracosyl)propanamide] | did not decrease the luciferase activity |  | 
CC(C)C[C@@H](C=O)NC(=O)[C@H](CC(C)C)NC(=O)[C@H](CC(C)C)NC(=O)OCc1ccccc1 [MG132, reference compound] (Cbz-Leu-Leu-Leu-aldehyde) |  | blocked HyT13 mediated degradation | 
CC(=O)NC(CCc1ccccc1)C(=O)NC(CC(C)C)C(=O)NC(Cc1ccccc1)C(=O)NC(CC(C)C)C(=O)C1(C)CO1 (stereo not shown) [YU101, reference compound] |  | blocked HyT13 mediated degradation | toxic to cells
